# Tests used:
# [1] = test system: Bcl10-YFP POLKADOTS formation; assay: Bcl10-YFP POLKADOTS formation in PMA-stimulated D10 T cells with cytoskeletal inhibitors; format: cell-based, murine; conditions: data not shown
# Description: (§1) To circumvent the problem that many cytoskeletal inhibitors also impair T cell/APC conjugate formation, D10 T cells were activated with phorbol ester (PMA), a stimulator of PKC. Specifically, in these experiments, D10 T cells infected with retroviruses encoding PKCθ-CFP and Bcl10-YFP received no pre-treatment, 2 hr pretreatment with 10 μg/ml nocodazole, or 1 hr pretreatment with 2 μg/ml latrunculin A. Cells then received either no treatment or were incubated for 20 min with 10 ng/ml PMA.
# PKCθ-CFP = target: T1, PKCθ-CFP (Mus musculus, UniProt Q02111); assay: PKCθ-CFP translocation in D10 T cells, fluorescence microscopy; format: cell-based, murine
# T1 construct: expressed in transfected cells; host or cells: D10 murine CD4+ T cell clone, infected with pEneo retrovirus
# T1 sequence (Q02111 whole entry): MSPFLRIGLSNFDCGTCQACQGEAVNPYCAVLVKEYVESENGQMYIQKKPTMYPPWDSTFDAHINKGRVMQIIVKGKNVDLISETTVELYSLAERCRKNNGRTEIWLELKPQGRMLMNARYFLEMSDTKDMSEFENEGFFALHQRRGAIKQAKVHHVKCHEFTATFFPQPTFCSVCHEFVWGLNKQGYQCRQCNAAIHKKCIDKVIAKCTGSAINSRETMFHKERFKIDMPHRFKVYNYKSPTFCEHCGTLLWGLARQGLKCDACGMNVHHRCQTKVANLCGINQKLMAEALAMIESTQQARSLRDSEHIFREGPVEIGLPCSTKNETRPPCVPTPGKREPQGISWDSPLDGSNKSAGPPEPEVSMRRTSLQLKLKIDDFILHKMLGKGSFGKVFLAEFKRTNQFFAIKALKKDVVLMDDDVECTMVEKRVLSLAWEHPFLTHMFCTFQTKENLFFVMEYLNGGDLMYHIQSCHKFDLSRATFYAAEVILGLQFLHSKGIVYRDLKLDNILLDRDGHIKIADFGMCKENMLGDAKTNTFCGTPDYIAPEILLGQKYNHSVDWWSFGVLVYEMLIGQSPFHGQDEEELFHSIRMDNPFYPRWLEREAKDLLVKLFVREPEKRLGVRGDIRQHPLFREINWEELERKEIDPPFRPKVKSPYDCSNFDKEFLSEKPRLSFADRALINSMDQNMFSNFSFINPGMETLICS
# Description: (§2) Murine PKCθ was fused to a C-terminal linker (GRVELGR; SEQ ID NO:7) followed by GFP or CFP (19), modified by mutations that improve folding at 37° C. (20). Two I.M.A.G.E. expressed sequence tag (EST) clones encoding murine Bcl10 were purchased (2123397 and 3026026; ResGen). Clone 3026026 was used for PCR amplification of Bc 10, adding the C-terminal linker GR, which was then fused to the previously described modified YFP gene (17). The PKCθ-CFP and Bcl10-YFP gene fusions were cloned into the retroviral vectors pEneo and pEhyg (21), respectively. Retroviral infection and cell line production were as described (17).
# as §1
# (§3) CH12 B cells that had been pre-incubated with no antigen or with 250 μg/ml conalbumin protein were then added. Cells were fixed after 30 min and examined by fluorescence microscopy. […]
# microtubules = assay: Microtubule integrity (tubulin distribution) in PMA-stimulated D10 T cells; format: cell-based, murine; conditions: 2 hr pretreatment with 10 μg/ml nocodazole, then 10 ng/ml PMA 20 min
# Description: as §1
# [2] = test system: Bcl10-YFP POLKADOTS formation; assay: Bcl10-YFP POLKADOTS formation in antigen-stimulated D10 T cells, fluorescence microscopy; format: cell-based, murine; conditions: bisindo 2 μM, stauro 100 nM; for Bcl10-YFP POLKADOTS formation: D10 T cells expressing Bcl10-YFP, conalbumin-loaded CH12 B cells (100 μg/ml), 30 min pre-treatment, fixed after 20 min, FIG. 4; for Bcl10 POLKADOTS formation: D10 T cells expressing PKCθ-CFP and Bcl10-YFP, CH12 B cells with 250 μg/ml conalbumin, 30 min pretreatment, fixed after 30 min, FIG. 5
# Description: (§4) D10-IL2 (henceforth referred to as D10) is an IL-2 dependent subclone of the CD4^+ T cell clone D10 (16), maintained as described (17). Primary T cell blasts were prepared by stimulation of spleen and lymph node cells with 100 μg/ml plate-bound anti-TCRP for 48 hr, with IL-2 added for the final 24 hr of stimulation. CH12H-2^k B cells and CHb H-2^b B cells (18) were maintained as described previously (17).
# as §2
# Fluorescent and Nomarski images were acquired on an Olympus IX70 inverted microscope (Olympus America, Inc.) or a Zeiss Axiovert 200M inverted microscope (Carl Zeiss, Inc.) using a 100× plan-apochromat oil objective. The microscope was controlled by a TILLvisTRAC imaging system, driven by TILLvisION 4.0 software (TILL Photonics, GmbH). Excitation light was provided by a Polychrome IV monochromator (TILL Photonics, GmbH). Dichroic mirrors and excitation filters appropriate for each fluorophore were purchased from Chroma.
# For fixed cell imaging, T cell conjugates were formed, mounted on coverslips, paraformaldehyde fixed, and stained with fluorophore-conjugated antibodies (Molecular Probes, Inc.) as described previously (16). For each fluorescent wavelength, z-stacks of 50 xy-planes separated by 0.3 μm were acquired, and stacks were digitally deconvolved using a constrained-iterative algorithm. TILLvisION software was used to convert z-stacks into xy projection images, by retaining only the maximal pixel value for each xy coordinate across the z-dimension.
# The inventors next examined whether formation of Bcl10 POLKADOTS is PKC-dependent (FIG. 4 and FIG. 5). D10 T cells expressing Bcl10-YFP were incubated with CH12 B cells with no antigen, or with conalbumin-loaded CH12 B cells (100 μg/ml conalbumin). […] Cells were fixed after 20 minutes and examined by fluorescence microscopy. For each group, >200 T cells were counted, and percentages with and without POLKADOTS were determined.
# as §3
# [3] = test system: Bcl10-YFP phosphorylation; assay: Western blot of TCR-dependent Bcl10-YFP phosphorylation in D10 T cells; format: cell-based, murine; conditions: anti-TCR stimulation, 30 min pre-treatment with 2 μM, data not shown
# Description: (§5) T cells were stimulated with 100 μg/ml plate-bound anti-TCRP. Cell lysates were prepared on ice using 1× Laemmli buffer, followed by sonication. For immunoprecipitations, 5×10^6 cells were lysed for 1 hr on ice in 360 μL of a buffer consisting of 0.5% NP40, 0.5% deoxcholate, 20 mM Tris, pH 7.6, 250 mM NaCl, 3 mM EDTA, 3 mM EGTA, 1 mM PMSF, 20 μg/ml aprotinin, 100 μg/ml leupeptin, 1 mM Na3VO4, 10 mM NaF, and 1 mM DTT. Nuclei were removed by centrifugation, and lysates were incubated with polyclonal rabbit anti-Bcl10 antibody (Santa Cruz Biotechnology) for 2-3 hr at 4° C. and then for 1 hr at 4° C. with Protein A sepharose. Lysates and immunoprecipitates were separated by SDS-PAGE and blotted onto nitrocellulose. Proteins were detected by monoclonal antibodies against Bcl10 (Santa Cruz Biotechnology), and PKCθ (BD/Translabs), and polyclonal antibodies against phospho-IκBα anti-phospho-PKCθ/Thr538 (Cell Signaling Technologies), and actin (Santa Cruz Biotechnology). For phosphatase treatment, immunoprecipitates were incubated for 45 min at 30° C. with 400 U of λ-phosphatase (New England Biolabs), according to the instructions of the manufacturer.
# The inventors next investigated whether Bcl10 redistribution reflects biochemical modification of Bcl10. […]
# [4] = test system: NF-κB activation (phosphorylation of IκBα); assay: NF-κB activation assessed by phosphorylation of IκBα in anti-TCR stimulated D10 T cells; format: cell-based, murine; conditions: anti-TCR stimulation, 30 min pre-treatment with 2 μM, data not shown
# Description: as §5, with “manufacturer. […]” for “manufacturer.”
# ERK MAP kinases = assay: Activation of ERK MAP kinases in anti-TCR stimulated D10 T cells; format: cell-based, murine; conditions: anti-TCR stimulation, 30 min pre-treatment with 2 μM
# Bcl10 = assay: Endogenous Bcl10 enrichment at the T cell/APC interface in OTII T cell blasts, immunofluorescence microscopy; format: cell-based, mice; conditions: 45 min with CHb APC loaded with 10 μg/ml OVA 323-339, FIG. 1B
# Description: as §4
# For fixed cell imaging, T cell conjugates were formed, mounted on coverslips, paraformaldehyde fixed, and stained with fluorophore-conjugated antibodies (Molecular Probes, Inc.) as described previously (16). […]
# The inventors sought to establish whether Bcl10, like PKCθ, might be recruited to the c-SMAC in response to specific antigen-loaded APC. […] T cell/APC conjugates were detected by immunofluorescence microscopy, using monoclonal antibodies directed against Bcl10, PKCθ and CD4 (FIG. 1A). […]
# In contrast, in T cells stimulated by specific antigen-loaded CHb APC, PKCθ became enriched at the region of contact between the T cell and the APC. […] The mean maximal anti-Bcl10 fluorescence intensity of the enriched regions of the antigen-stimulated T cells was 7-fold higher than the maximal T cell anti-Bcl10 fluorescence of the no antigen controls (FIG. 1B; error bars representing SEM).
molecule,measurement,setting,value
CCCCCCCCCCCCCC(=O)O[C@@H]1[C@@H](C)[C@@]2(O)[C@@H](C=C(CO)C[C@]3(O)C(=O)C(C)=C[C@@H]23)[C@@H]2C(C)(C)[C@]12OC(C)=O [PMA],Bcl10-YFP POLKADOTS on PMA stimulation,"[1]; D10 T cells expressing PKCθ-CFP and Bcl10-YFP, 10 ng/ml PMA for 20 min",formation of Bcl10-YFP POLKADOTS
same,PKCθ-CFP translocation on PMA stimulation,"PKCθ-CFP; 10 ng/ml PMA for 20 min, data not shown",translocation of PKCθ-CFP to the cell membrane
C/C1=C/C(=O)O[C@@H]2C[C@@H](CC[C@H](C)/C=C\C=C\CC1)O[C@@](O)([C@@H]1CSC(=O)N1)C2 [latrunculin A],levels of Bcl10-YFP POLKADOTS after cytoskeletal inhibitor pretreatment,"[1]; 1 hr pretreatment with 2 μg/ml latrunculin A, then 10 ng/ml PMA 20 min",did not appear to have reduced levels
COC(=O)Nc1nc2ccc(C(=O)c3cccs3)cc2[nH]1 [nocodazole],microtubules (distribution of tubulin),microtubules,disrupted
"CN[C@@H]1C[C@H]2O[C@@](C)([C@@H]1OC)n1c3ccccc3c3c4c(c5c6ccccc6n2c5c31)C(=O)NC4 [stauro, staurosporine]",Bcl10-YFP POLKADOTS formation,[2],blocked
same,Bcl10 POLKADOTS formation,[2],blocked
bisindolylmaleimide,Bcl10-YFP POLKADOTS formation,[2],blocked
same,Bcl10 POLKADOTS formation,[2],blocked
same,formation of phosphorylated Bcl10-YFP,[3],completely blocked
same,activation of NF-κB (phosphorylation of IκBα),[4],blocked
same,activation of the ERK MAP kinases,ERK MAP kinases,partially inhibited
same,PKCθ translocation in presence of PKC inhibitors,"PKCθ-CFP; CH12 B cells with 250 μg/ml conalbumin, 30 min pretreatment, bisindo 2 μM, stauro 100 nM, FIG. 5",occurs
"ovalbumin: ovalbumin peptide OVA 323-339 bound to IA^b, antigen for OTII T cells (KISQAVHAAHAEINEAG; UniProt P01012 323-339, looked up, fragment)",mean maximal anti-Bcl10 fluorescence intensity of enriched regions relative to no antigen controls,Bcl10,7 fold
